Source: PubChem BioAssay (NCI)
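All cell lines were grown in 96-well plates and treated with compound for 48 hours. TGI marks complete inhibition of growth.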

Key:
Experiment in all cases: inhibition of tumour cell growth, NCI panel, 48 h
KM12 colon = system: KM12 colon
LOX IMVI melanoma = system: LOX IMVI melanoma
NCI-H23 lung = system: NCI-H23 lung
RXF 393 renal = system: RXF 393 renal
SF-539 CNS = system: SF-539 CNS
SK-MEL-2 melanoma = system: SK-MEL-2 melanoma
SW-620 colon = system: SW-620 colon
CAKI-1 renal = system: CAKI-1 renal
MOLT-4 leukemia = system: MOLT-4 leukemia
A498 renal = system: A498 renal
HL-60(TB) leukemia = system: HL-60(TB) leukemia

Cc1ccc(S(=O)(=O)c2ccc(C)cc2[N+](=O)[O-])c([N+](=O)[O-])c1
TGI (KM12 colon): > 100 µM
TGI (LOX IMVI melanoma): > 100 µM
TGI (NCI-H23 lung): > 100 µM
TGI (RXF 393 renal): > 100 µM
TGI (SF-539 CNS): > 100 µM
TGI (SK-MEL-2 melanoma): > 100 µM
TGI (SW-620 colon): > 100 µM

CCOC(=O)/C=C(/C(=O)OCC)n1ccc(=O)n(Cc2cn(CCCCOC(C)=O)nn2)c1=O
TGI (CAKI-1 renal): 53.6 µM
TGI (KM12 colon): > 100 µM
TGI (LOX IMVI melanoma): > 100 µM
TGI (MOLT-4 leukemia): > 100 µM
TGI (NCI-H23 lung): > 100 µM
TGI (RXF 393 renal): > 100 µM
TGI (SF-539 CNS): > 100 µM
TGI (SK-MEL-2 melanoma): > 100 µM
TGI (SW-620 colon): > 100 µM

CCC1=CC(OCc2ccccc2)C(CCN(Cc2ccccc2)C(=O)OCc2ccccc2)C1 (configuration not stated)
TGI (A498 renal): 48.4 µM
TGI (CAKI-1 renal): 28.3 µM
TGI (KM12 colon): 29.7 µM
TGI (LOX IMVI melanoma): 32.7 µM
TGI (MOLT-4 leukemia): 46.5 µM
TGI (NCI-H23 lung): 33.4 µM
TGI (RXF 393 renal): 17.7 µM
TGI (SF-539 CNS): 49.1 µM
TGI (SK-MEL-2 melanoma): 42.1 µM
TGI (SW-620 colon): 37 µM

COc1cc2ccnc(C#N)c2cc1OCc1ccccc1
TGI (A498 renal): > 100 µM
TGI (CAKI-1 renal): > 100 µM
TGI (KM12 colon): > 100 µM
TGI (MOLT-4 leukemia): > 100 µM
TGI (NCI-H23 lung): > 100 µM
TGI (SF-539 CNS): > 100 µM
TGI (SK-MEL-2 melanoma): > 100 µM
TGI (SW-620 colon): > 100 µM

C1=NN2C(c3ccccc3)=NOC2C2C(c3ccccc3)=NOC12 (configuration not stated)
TGI (CAKI-1 renal): > 100 µM
TGI (KM12 colon): > 100 µM
TGI (LOX IMVI melanoma): > 100 µM
TGI (NCI-H23 lung): > 100 µM
TGI (RXF 393 renal): > 100 µM
TGI (SF-539 CNS): > 100 µM

Cn1c2ncccc2n2c(=O)cc(O)cc12
TGI (A498 renal): > 100 µM
TGI (CAKI-1 renal): > 100 µM
TGI (KM12 colon): > 100 µM
TGI (LOX IMVI melanoma): > 100 µM
TGI (MOLT-4 leukemia): 60.1 µM
TGI (NCI-H23 lung): > 100 µM
TGI (RXF 393 renal): 75.5 µM
TGI (SF-539 CNS): > 100 µM
TGI (SK-MEL-2 melanoma): > 100 µM
TGI (SW-620 colon): > 100 µM

CC(C)(C)OC(=O)N(O)CCCn1cnc2c(NC3CC3)ncnc21
TGI (A498 renal): > 100 µM
TGI (CAKI-1 renal): > 100 µM
TGI (KM12 colon): > 100 µM
TGI (LOX IMVI melanoma): > 100 µM
TGI (MOLT-4 leukemia): > 100 µM
TGI (NCI-H23 lung): > 100 µM
TGI (RXF 393 renal): > 100 µM
TGI (SF-539 CNS): > 100 µM
TGI (SK-MEL-2 melanoma): > 100 µM
TGI (SW-620 colon): > 100 µM

CC1=CC2(C)C=C[C@@H]1C(=O)[C@@]1(C)CC[C@@](O)(C(C)C)[C@H]1CC2
TGI (A498 renal): 45.6 µM
TGI (KM12 colon): 41.7 µM
TGI (LOX IMVI melanoma): 39 µM
TGI (MOLT-4 leukemia): 51.9 µM
TGI (NCI-H23 lung): 50.4 µM
TGI (RXF 393 renal): 43.5 µM
TGI (SF-539 CNS): 35 µM
TGI (SK-MEL-2 melanoma): 77 µM
TGI (SW-620 colon): 37.7 µM

CC(=Nc1ccc(Cl)cc1)c1ccncc1
TGI (A498 renal): > 100 µM
TGI (CAKI-1 renal): > 100 µM
TGI (KM12 colon): > 100 µM
TGI (LOX IMVI melanoma): > 100 µM
TGI (MOLT-4 leukemia): > 100 µM
TGI (NCI-H23 lung): > 100 µM
TGI (RXF 393 renal): > 100 µM
TGI (SF-539 CNS): 77.9 µM
TGI (SK-MEL-2 melanoma): > 100 µM
TGI (SW-620 colon): > 100 µM

N#Cc1c(-c2ccccc2)cn(C(=O)c2ccccc2)c1N
TGI (HL-60(TB) leukemia): > 100 µM
TGI (KM12 colon): > 100 µM
TGI (LOX IMVI melanoma): > 100 µM
TGI (MOLT-4 leukemia): > 100 µM
TGI (NCI-H23 lung): > 100 µM
TGI (SK-MEL-2 melanoma): > 100 µM
TGI (SW-620 colon): > 100 µM

c1ccc2cc(C3NCCc4[nH]cnc43)ccc2c1 (configuration not stated)
TGI (A498 renal): 88.5 µM
TGI (CAKI-1 renal): > 100 µM
TGI (KM12 colon): 56.2 µM
TGI (LOX IMVI melanoma): > 100 µM
TGI (MOLT-4 leukemia): 57.9 µM
TGI (NCI-H23 lung): > 100 µM
TGI (RXF 393 renal): > 100 µM
TGI (SF-539 CNS): > 100 µM
TGI (SK-MEL-2 melanoma): > 100 µM
TGI (SW-620 colon): > 100 µM

CCOC(=O)/C(C1=NCCN1C)=C(\O)c1ccccc1
TGI (CAKI-1 renal): > 100 µM
TGI (HL-60(TB) leukemia): > 100 µM
TGI (KM12 colon): > 100 µM
TGI (LOX IMVI melanoma): > 100 µM
TGI (MOLT-4 leukemia): > 100 µM
TGI (NCI-H23 lung): > 100 µM
TGI (RXF 393 renal): > 100 µM
TGI (SK-MEL-2 melanoma): > 100 µM
TGI (SW-620 colon): > 100 µM

CCC1(c2ccc(OC)c(OC)c2)CCN(S(=O)(=O)c2ccc(C)cc2)C1 (configuration not stated)
TGI (CAKI-1 renal): > 100 µM
TGI (KM12 colon): > 100 µM
TGI (LOX IMVI melanoma): > 100 µM
TGI (MOLT-4 leukemia): 64.1 µM
TGI (NCI-H23 lung): > 100 µM
TGI (RXF 393 renal): > 100 µM
TGI (SF-539 CNS): > 100 µM
TGI (SK-MEL-2 melanoma): > 100 µM
TGI (SW-620 colon): > 100 µM

COC(C)=NCCC1=CCCCC1
TGI (A498 renal): > 100 µM
TGI (CAKI-1 renal): > 100 µM
TGI (KM12 colon): > 100 µM
TGI (MOLT-4 leukemia): > 100 µM
TGI (NCI-H23 lung): > 100 µM
TGI (RXF 393 renal): > 100 µM
TGI (SK-MEL-2 melanoma): > 100 µM
TGI (SW-620 colon): > 100 µM

CC(CC(=O)N1C2CC3CCC2(CS1(=O)=O)C3(C)C)[Si](C)(C)C (configuration not stated)
TGI (CAKI-1 renal): > 100 µM
TGI (HL-60(TB) leukemia): > 100 µM
TGI (KM12 colon): > 100 µM
TGI (LOX IMVI melanoma): > 100 µM
TGI (MOLT-4 leukemia): > 100 µM
TGI (NCI-H23 lung): > 100 µM
TGI (RXF 393 renal): > 100 µM
TGI (SF-539 CNS): > 100 µM
TGI (SW-620 colon): > 100 µM

N#CCCC(C#N)(C#N)CCC#N
TGI (HL-60(TB) leukemia): > 100 µM
TGI (KM12 colon): > 100 µM
TGI (LOX IMVI melanoma): > 100 µM
TGI (MOLT-4 leukemia): > 100 µM
TGI (NCI-H23 lung): > 100 µM
TGI (SF-539 CNS): > 100 µM
TGI (SW-620 colon): > 100 µM

COc1ccccc1N1CCN(S(=O)(=O)c2ccc(Cl)cc2)C1=N
TGI (A498 renal): > 100 µM
TGI (CAKI-1 renal): > 100 µM
TGI (KM12 colon): > 100 µM
TGI (MOLT-4 leukemia): > 100 µM
TGI (NCI-H23 lung): > 100 µM
TGI (RXF 393 renal): > 100 µM
TGI (SF-539 CNS): > 100 µM
TGI (SK-MEL-2 melanoma): > 100 µM
TGI (SW-620 colon): > 100 µM

COP12(OC)NC(=O)OC1(C(F)(F)F)c1ccccc1O2 (configuration not stated)
TGI (HL-60(TB) leukemia): > 100 µM
TGI (KM12 colon): > 100 µM
TGI (LOX IMVI melanoma): > 100 µM
TGI (MOLT-4 leukemia): > 100 µM
TGI (NCI-H23 lung): > 100 µM
TGI (RXF 393 renal): > 100 µM
TGI (SF-539 CNS): > 100 µM
TGI (SK-MEL-2 melanoma): > 100 µM

Cc1n[nH]c(=O)n1/N=C/c1ccco1
TGI (A498 renal): > 100 µM
TGI (CAKI-1 renal): > 100 µM
TGI (KM12 colon): > 100 µM
TGI (MOLT-4 leukemia): > 100 µM
TGI (NCI-H23 lung): > 100 µM
TGI (RXF 393 renal): > 100 µM
TGI (SF-539 CNS): > 100 µM
TGI (SK-MEL-2 melanoma): > 100 µM
TGI (SW-620 colon): > 100 µM

Cc1ccccc1N(CCC#N)C1=NN(C(=O)CC(=O)Nc2ccc(Cl)cc2)C(c2ccccc2)C1 (configuration not stated)
TGI (HL-60(TB) leukemia): > 100 µM
TGI (KM12 colon): > 100 µM
TGI (MOLT-4 leukemia): > 100 µM
TGI (NCI-H23 lung): > 100 µM
TGI (RXF 393 renal): > 100 µM
TGI (SF-539 CNS): > 100 µM
TGI (SK-MEL-2 melanoma): > 100 µM
TGI (SW-620 colon): > 100 µM
